{
  "source": "patent US20100041697A1",
  "about": "“PNEUMONIA TREATMENT” (TaiGen Biotechnology Co., Ltd., priority 2008, published 2010)",
  "key": {"[1]": {"tested_on": "multidrug-resistant methicillin-resistant Staphylococcus aureus", "experiment": "Agar dilution MIC against multidrug-resistant MRSA (Taiwan isolates)", "format": "cell-based", "description": "Compound 1 was tested for its inhibitory effect against multidrug-resistant methicillin-resistant Staphylococcus aureus obtained by 10 medical centers in all regions of Taiwan. MICs were determined using the agar dilution methods recommended by the Clinical and Laboratory Standards Institute (CLSI-M100-S18)."}, "[2]": {"tested_on": "community-acquired pneumonia", "experiment": "Randomized, double-blind clinical trials in community-acquired pneumonia", "format": "in vivo, human", "settings": "for cure rate / subjects cured: after 7 days; for cure rate: adult patients", "description": "Randomized, double-blind clinical trials were conducted at 17 sites in Taiwan and South Africa to assess the effectiveness of Compound 1 in treating adult patients with community-acquired pneumonia.\nThe trials included a total of 265 subjects having community-acquired pneumonia. The average age of the subjects was 43.5 years old and the average body weight was 66.17 kg. About 50% of the subjects were male, and about 62% of the subjects were Black or African American, about 21% White, and about 15% Asian.\nAmong the 265 subjects, 86 were treated with 3 Compound 1-containing capsules (750 mg of the free base compound, i.e., (3S,5S)-7-[3-amino-5-methyl-piperidinyl]-1-cyclopropyl-1,4-dihydro-8-methoxy-4-oxo-3-quinolinecarboxylic acid) per day, 89 with 2 Compound 1-containing capsules (500 mg of the free base compound) per day, and 90 with 2 levofloxacin capsules (500 mg of levofloxacin) per day for 7 consecutive days. In each group, the drug capsules were orally taken by the subjects in the morning with a full glass of water (240 mL). Within 2 hours after taking the drugs, the subjects were not allowed to eat, but water intake (no more than 240 mL) was permitted. Overall, 10.6% of randomized subjects withdrew from the treatments."}, "[3]": {"experiment": "Plasma protein binding by ultrafiltration", "format": "in vitro ADME", "settings": "human plasma", "description": "Protein binding was also measured as follows: Ultrafiltrate (UF) samples were obtained by centrifuging the above-mentioned Compound 1-contaning heparinized human plasma in molecular weight cutoff ultrafiltration devices (30,000 Da) at ˜3000 rpm (30 min, ˜37° C.). The UF samples (0.025 mL) were mixed with an internal standard solution—0.050 mL of ˜800 ng/mL O^13CD3-Compound 1 (in which the OCH3 group was replaced with the O^13CD3 group), diluted by 20 folds, and analyzed by reverse-phase HPLC on a 3.5 micron C-18 column. Quantitation was obtained by the multiple reaction monitoring method through positive ion Turbo-Ion Spray ionization. Ultrafiltrate standards were used to quantify the unbound drug in plasma quality control samples and unknown specimens. Non-specific protein binding (NSB) was measured (NSB=0.0415) and used as a correction factor to determine the final % protein bindings. The nominal range of quantitation for the analyte was 50 to 10,000 ng/mL. 0.400 mL aliquot of human plasma was used in the assay. Sample concentrations were determined by back-calculation using a weighted linear (1/x^2) regression of a calibration curve generated from spiked UF standards. Over the linear range, the inter-batch % CV for Compound 1 was 4.9% to 11.8%."}, "[4]": {"experiment": "Pharmacokinetic analysis of plasma (Cmax, AUC0-24h) at steady state", "format": "in vivo, human", "settings": "for Free AUC0-24: corrected for plasma protein binding; for Cmax / AUC(0-t): human, po, steady state, plasma; for Cmax: in vivo"}, "[5]": {"tested_on": "Methicillin-Resistant Staphylococcus aureus", "experiment": "Broth microdilution against MRSA isolates (CAN-ICU Study)", "format": "cell-based", "from_the_text": "MRSA isolates (n=193) were obtained as part of the Canadian National Intensive Care Unit (CAN-ICU) Study. 19 medical centers from all regions of Canada with active ICUs participated in the CAN-ICU study included. They were requested to only obtain “clinically significant” specimens from patients with a presumed infectious disease. Surveillance swabs, eye, ear, nose and throat swabs were excluded. Anaerobic organisms and fungal organisms were also excluded.\nFrom September 2005-June 2006 (inclusive), each center collected a maximum of 300 consecutive pathogens isolated from blood, urine, tissue/wound, and respiratory specimens (one pathogen per cultured site per patient) of ICU patients. These isolates were shipped to the reference laboratory (Health Sciences Centre, Winnipeg, Canada) on Amies charcoal swabs, subcultured in appropriate media, and stocked in skim milk at −80° C.\nThe isolates' methicillin resistance was confirmed using the disk diffusion method described by the Clinical and Laboratory Standards Institute. […] Their PFGE fingerprints thus obtained were analyzed with BioNumerics v3.5 (Applied Maths St. Marten-Latem, Belgium) using a position tolerance of 1.0 and an optimization of 1.0. Strain relatedness was determined as previously described (Tenover et al., 1995). […]"}, "Streptococcus pneumoniae": {"tested_on": "Streptococcus pneumoniae", "experiment": "Broth microdilution MIC against Streptococcus pneumoniae (Taiwan isolates)", "format": "cell-based", "settings": "0.008 to 8 μg/ml", "description": "(§1) The Staphylococcus aureus and Streptococcus pneumoniae isolates were obtained by 10 medical centers in all regions of Taiwan. MICs were determined using the broth microdilution method."}, "[6]": {"tested_on": "Methicillin-Resistant Staphylococcus aureus", "experiment": "Broth microdilution MIC against methicillin-resistant Staphylococcus aureus (Taiwan isolates)", "format": "cell-based", "settings": "0.008 to 8 μg/ml", "description": "as §1"}, "[7]": {"settings": "500 mg per day orally, 89 treated (Compound 1), 90 treated (levofloxacin)"}},
  "note": "Counter-ions that a name gives are not always drawn.",
  "data": [
    {"smiles": "COc1c(N2C[C@@H](C)C[C@H](N)C2)ccc2c(=O)c(C(=O)O)cn(C3CC3)c12", "note": "[Compound 1, malate salt hemihydrate of (3S,5S)-7-[3-amino-5-methyl-piperidinyl]-1-cyclopropyl-1,4-dihydro-8-methoxy-4-oxo-3-quinolinecarboxylic acid]", "values": [
      {"measurement": "inhibitory effect against MRSA isolates that are Ciprofloxacin-resistant, Vancomycin-intermediate-resistant, and Daptomycin-nonsusceptible", "setting": "[1]", "value": "effective in inhibiting"},
      {"measurement": "cure rate", "setting": "[2]; 500 mg per day orally", "value": 75.3, "unit": "%"},
      {"measurement": "subjects cured", "setting": "[2]; [7]", "value": 67, "unit": "subjects"},
      {"measurement": "cure rate", "setting": "[2]; 750 mg per day orally", "value": 82.6, "unit": "%"},
      {"measurement": "subjects cured", "setting": "[2]; 750 mg per day orally, 86 treated", "value": 71, "unit": "subjects"},
      {"measurement": "effectiveness in treating community-acquired pneumonia", "setting": "[2]; oral capsules, 7 consecutive days", "value": "effective in treating community-acquired pneumonia"},
      {"measurement": "fraction unbound at 30 min", "setting": "[3]; 500 mg per day, 500 mg q24 p.o.", "value": 0.84},
      {"measurement": "Protein Binding", "setting": "[3]; 750 mg q24 p.o.", "value": 16, "unit": "%"},
      {"measurement": "Protein Binding", "setting": "[3]; 1000 mg q24 p.o.", "value": 16, "unit": "%"},
      {"measurement": "Free AUC0-24", "setting": "[4]; 500 mg q24 p.o.", "value": 32.4, "unit": "µg·h/mL"},
      {"measurement": "Free AUC0-24", "setting": "[4]; 750 mg q24 p.o.", "value": 49.1, "unit": "µg·h/mL"},
      {"measurement": "Free AUC0-24", "setting": "[4]; 1000 mg q24 p.o.", "value": 62.9, "unit": "µg·h/mL"},
      {"measurement": "Cmax", "setting": "[4]; 500 mg q24 p.o.", "value": 5.56, "unit": "µg/mL"},
      {"measurement": "Cmax", "setting": "[4]; 750 mg q24 p.o.", "value": 6.82, "unit": "µg/mL"},
      {"measurement": "Cmax", "setting": "[4]; 1000 mg q24 p.o.", "value": 8.2, "unit": "µg/mL"},
      {"measurement": "AUC(0-t)", "setting": "[4]; 500 mg q24 p.o.", "value": 38.6, "unit": "µg·h/mL"},
      {"measurement": "AUC(0-t)", "setting": "[4]; 750 mg q24 p.o.", "value": 58.4, "unit": "µg·h/mL"},
      {"measurement": "AUC(0-t)", "setting": "[4]; 1000 mg q24 p.o.", "value": 74.8, "unit": "µg·h/mL"},
      {"measurement": "activity against community-associated-MRSA versus healthcare-associated-MRSA strains", "setting": "[5]", "value": "more active against community-associated-MRSA strains than healthcare-associated-MRSA strains"},
      {"measurement": "inhibitory activity against the MRSA isolates", "setting": "[5]; 193 MRSA isolates", "value": "effectively inhibited MRSA"}
    ]},
    {"smiles": "COc1c(N2C[C@H](C)C[C@H](N)C2)ccc2c(=O)c(C(=O)O)cn(C3CC3)c12", "note": "[Compound 1′, malate salt hemihydrate of (3S,5R)-7-[3-amino-5-methyl-piperidinyl]-1-cyclopropyl-1,4-dihydro-8-methoxy-4-oxo-3-quinolinecarboxylic acid]", "values": [
      {"measurement": "inhibitory effect against Streptococcus pneumoniae", "setting": "Streptococcus pneumoniae", "value": "effective in inhibiting"},
      {"measurement": "inhibitory effect against methicillin-resistant Staphylococcus aureus", "setting": "[6]", "value": "effective in inhibiting"}
    ]},
    {"smiles": "C[C@H]1COc2c(N3CCN(C)CC3)c(F)cc3c(=O)c(C(=O)O)cn1c23", "note": "[levofloxacin, reference compound]", "values": [
      {"measurement": "cure rate", "setting": "[2]; 500 mg per day orally", "value": 80.0, "unit": "%"},
      {"measurement": "subjects cured", "setting": "[2]; [7]", "value": 72, "unit": "subjects"}
    ]}
  ]
}
